Experimental data from patent US20190008797A1, “ESTROGEN RECEPTOR ALPHA COLIGANDS, AND METHODS OF USE THEREOF” (priority 2016, published 2019).

Columns and labels:
ERα = ERα (Homo sapiens, UniProt P03372); test: NKG2E-TK-Luc transfection assay, U2OS cells cotransfected with ERα; assay type: cell-based; set-up: expressed in transfected cells; host or cells: U2OS; conditions: 5 μM 2′,3′,4′-THC + 10 or 100 nM estrogen, 24 hours
Protocol: FIG. 7a-7e. […] (C) U2OS cells cotransfected with GRE-TK-Luc and human (h) GR and treated with 10 nM of dexamethasone (Dex) and 5 μM of 2′, 3′, 4′-THC alone or in combination for 24 hours. (D) U2OS cells cotransfected with human tyrosine aminotransferase (TATS)-luciferase reporter gene and hAR and treated with 10 nM of dihydrotestosterone (DHT) and 5 μM of 2′, 3′, 4′-THC alone or in combination for 24 hours. (E) U2OS cells cotransfected with TAT3-luciferase reporter gene and hPR-B and treated with 10 nM of progesterone (Prog) and 5 μM of 2′, 3′, 4′-THC alone or in combination for 24 hours. After transfection, luciferase activities were measured as described in the Methods. RLU is relative light units and the data shown are mean±SEM.
(§1) (FIGS. 6a, 6b) Gene expression of (FIG. 6a) KRT73 and (FIG. 6b) NKG2E in U2OS-ERα cells treated with 10 nM estradiol, 5 μM 2′, 3′, 4′-THC, 1μM ICI alone or in combination for 24 hours. […] Error bars are ±SEM. […] After transfection, luciferase activities were measured as described in the Methods. RLU is relative light units and the data shown are mean ±SEM. (FIG. 6c). […] After transfection, luciferase activities were measured as described in the Methods. RLU is relative light units and the data shown are mean ±SEM (FIG. 6d).

U2OS-ERα cells [1] = test: KRT19 mRNA real-time PCR in U2OS-ERα cells; assay type: cell-based, human; conditions: for KRT19 gene expression, compound alone: 10 nM E2, 5 μM 2′,3′,4′-THC, 1 μM tamoxifen or raloxifene, 24 hours; for effect on E2-induced KRT19 expression: in combination with 10 nM E2, 24 hours
Protocol: (§2) (FIG. 1a) Chemical structure of 2′, 3′, 4′-THC. (FIG. 1b) U2OS cells cotransfected with ERE tk-luciferase and ERα (left panel) or ERβ (right panel). After transfection the cells were treated for 24 hours with 10 nM estradiol and 5 μM 2′, 3′, 4′-THC alone or in combination. Cells were lysed and luciferase activity was measured. RLU is relative light units. Error bars are the Mean±SEM. **P≤0.01. […] The total cellular RNA was extracted and real-time PCR for KRT19 mRNA was performed as described in Materials and Methods. […] Error bars are ±SEM. *P≤0.05, **** P≤0.0001.
FIGS. 3a-3d. […] Error bars are ±SEM.

U2OS-ERα cells [2] = test: NKG2E mRNA real-time PCR in U2OS-ERα cells; assay type: cell-based, human; conditions: for NKG2E gene expression, compound alone: 10 nM E2, 5 μM 2′,3′,4′-THC, 1 μM tamoxifen or raloxifene
Protocol: as §2, §1

U2OS-ERα cells [3] = test: Microarray gene regulation in U2OS-ERα cells; assay type: cell-based, human
Protocol: Total cellular RNA was isolated utilizing the Aurum™ RNA isolation kit (Bio-Rad, Hercules, Calif.) per the manufacturer's directions. RNA isolates were first quantified by nanodrop®, and then qualitatively evaluated by the Bio-Rad Experion™ system per the manufacturer's instructions. Biotin-labeled cRNA samples were prepared using 750 ng of total RNA. Biotin-labeled samples were evaluated by both 260/280 absorbance spectrophotometry and capillary electrophoresis. Labeled cRNA samples were hybridized overnight against Human genome HG U133A-2.0 GeneChip® arrays, (Affymetrix, Santa Clara, Calif.). All treatments were done in triplicate with the same batch of microarrays. The data was analyzed as previously described (Saunier, E. F., et al. Estrogenic plant extracts reverse weight gain and fat accumulation without causing mammary gland or uterine proliferation. PloS one 6, e28333 (2011)).
FIGS. 2a-2f2′, 3′, 4′-THC behaves as a unique coagonist on gene expression in U2OS-ERα cells. […] Expression was assessed by up regulation or down regulation of 3-fold or more and a P-value≤0.05. […] Error bars are ±SEM.

U2OS-ERα cells [4] = test: Real-time PCR of unique genes FGR, KCNK6, KRT73 in U2OS-ERα cells; assay type: cell-based, human
Protocol: Expression was assessed by up regulation or down regulation of 3-fold or more and a P-value≤0.05. […] Error bars are ±SEM.
as §1

mouse uterus = test: Ovariectomized (OVX) mouse model, osmotic pump; assay type: in vivo; conditions: OVX mice, 4 weeks
Protocol: 8 week old C57b1/6J female ovariectomized or intact mice were purchased from Jackson Laboratories, Sacramento, Calif. Mice were housed and maintained according to OLAC standard procedures in the NAF facility at UC Berkeley, Calif. All mice were fed a soy-free chow diet 2916.15 (Harlan Laboratories, Livermore, Calif.) starting one week before osmotic pump implantation or 2′, 3′, 4′-THC injection. Pumps Model 2006 were purchased from Alzet and filled with vehicle, 1 μg […], 2 mg of 2′, 3′, 4′-THC or the combination of 2′, 3′, 4′-THC and estradiol. All drugs were dissolved in sterile vehicle consisting of 50% dimethylsulfoxide (DMSO), 25% ETOH and 25% deionized water. Pumps were handled with sterile gloves and filled using a 27 gauge filling tube and 1 mL syringe. All pumps were placed in 1X PBS in 15 mL sterile conical tubes and incubated overnight at 37° . Pumps were surgically implanted into 8 week old C57b1/6J female ovariectomized mice (Jackson Laboratory, Sacramento, Calif.) posterior to the scapula and left for a duration of 4 weeks. Intact mice were injected intraperitoneal with 2′, 3′, 4′-THC every day for 3 weeks. Mice were weighed once a week for the duration of the experiment. The intraperitoneal gonadal fat was removed and weighed. Uterine tissue was collected, fluid drained and then weighed.
Tissues were dissected and immediately frozen in liquid nitrogen. Before RNA isolation, tissues were homogenized in PureZOL™ using the MP FastPrep™-24 for 40 seconds.
Uterine Tissue Slide Preparation Uterine tissue was removed and trimmed of excess adipose tissue. Tissues were fixed in formalin for 24 hours then transferred to 50% ETOH for 1 hour followed by 70% ethanol (ETOH) for another hour. After fixation tissues were sent to Histopathology Reference Laboratory, Hercules Calif. where they were paraffin embedded, sectioned and stained with hematoxylin and eosin for morphological exam
FIGS. 5a-5h. 2′, 3′, 4′-THC acts as antagonist in the mouse uterus. Uterine weights of intact (FIG. 5a) and OVX (FIG. 5b) mice. […] (FIG. 5h) Total body weight of OVX mice after 4 week treatment. Error bars are ±SEM.

MCF-7 cells = test: MCF-7 cell proliferation (cell counting); conditions: 5 days
[5] = 1 μM ICI, 10 nM estradiol, 5 μM 2′,3′,4′-THC, 24 hours

Sequence of ERα (P03372 whole entry): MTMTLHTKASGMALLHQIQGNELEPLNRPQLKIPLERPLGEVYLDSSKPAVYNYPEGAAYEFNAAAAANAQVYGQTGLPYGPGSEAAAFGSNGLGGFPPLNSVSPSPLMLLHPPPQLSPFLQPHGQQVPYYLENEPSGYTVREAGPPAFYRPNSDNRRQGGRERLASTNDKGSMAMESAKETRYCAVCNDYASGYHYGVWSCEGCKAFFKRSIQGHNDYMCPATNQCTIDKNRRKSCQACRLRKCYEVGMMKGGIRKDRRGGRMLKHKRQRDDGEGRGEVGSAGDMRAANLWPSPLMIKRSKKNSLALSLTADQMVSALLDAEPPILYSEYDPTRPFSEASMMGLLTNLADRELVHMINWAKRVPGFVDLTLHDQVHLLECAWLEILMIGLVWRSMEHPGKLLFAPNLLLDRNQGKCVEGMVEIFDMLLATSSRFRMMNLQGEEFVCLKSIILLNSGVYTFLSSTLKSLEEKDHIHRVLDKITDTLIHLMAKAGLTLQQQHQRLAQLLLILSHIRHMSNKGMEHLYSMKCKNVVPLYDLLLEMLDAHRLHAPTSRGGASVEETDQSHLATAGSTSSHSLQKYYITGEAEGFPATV

C[C@]12CC[C@@H]3c4cc(O)c(O)cc4CC[C@H]3[C@@H]1CC[C@@H]2O [2-hydroxyestradiol, reference compound]
synergistic action of 2′,3′,4′-THC on NKG2E-TK-Luc with the named estrogen (ERα): synergistic action

COc1cc2c(cc1O)CC[C@@H]1[C@@H]2CC[C@]2(C)[C@@H](O)CC[C@@H]12 [2-methoxyestradiol, reference compound]
synergistic action of 2′,3′,4′-THC on NKG2E-TK-Luc with the named estrogen (ERα): smaller synergistic activation

C[C@]12CC[C@@H]3c4ccc(O)c(O)c4CC[C@H]3[C@@H]1CC[C@@H]2O [4-hydroxyestradiol, reference compound]
synergistic action of 2′,3′,4′-THC on NKG2E-TK-Luc with the named estrogen (ERα): synergistic action

C[C@]12CC[C@@H]3c4ccc(O)cc4CC[C@H]3[C@@H]1CC[C@@H]2O [E2, 17β-estradiol, reference compound]
KRT19 gene expression, compound alone (U2OS-ERα cells [1]): induced
NKG2E gene expression, compound alone (U2OS-ERα cells [2]; 24 hours): activated
genes uniquely regulated by E2 alone (U2OS-ERα cells [3]; 10 nM E2): 222 genes
number of genes regulated, compound alone (U2OS-ERα cells [3]; 10 nM E2 or 5 μM 2′,3′,4′-THC, 3-fold or more, P≤0.05): 756 genes
E2 dose at which FGR activation was observed (U2OS-ERα cells [4]; E2 alone, 24 hrs): 10 nM
KCNK6 regulation (U2OS-ERα cells [4]; E2 alone, 24 hrs): not regulated
KRT73 regulation (U2OS-ERα cells [4]; E2 alone, 24 hrs): not regulated
H & E staining of uterus, compound alone (mouse uterus): increased the number of cells lining the duct
amount of gonadal adipose tissue fat (mouse uterus; E2 alone): decreased
uterine size / uterine weight, compound alone (mouse uterus; osmotic pump): large increase
MCF-7 cell proliferation, compound alone (MCF-7 cells): increased

C[C@]12CC[C@@H]3c4ccc(O)cc4C[C@@H](CCCCCCCCC[S+]([O-])CCCC(F)(F)C(F)(F)F)[C@H]3[C@@H]1CC[C@@H]2O (some centres unmarked) [ICI 182,780]
effect on induction of NKG2E by the 2′,3′,4′-THC/E2 combination (U2OS-ERα cells [2]; [5]): blocked
effect on induction of KRT73 by the 2′,3′,4′-THC/E2 combination (U2OS-ERα cells [4]; [5]): blocked

O=C(c1ccc(OCCN2CCCCC2)cc1)c1c(-c2ccc(O)cc2)sc2cc(O)ccc12 [raloxifene]
KRT19 gene expression, compound alone (U2OS-ERα cells [1]): no effect
effect on E2-induced KRT19 expression (U2OS-ERα cells [1]): blocked
NKG2E gene expression, compound alone (U2OS-ERα cells [2]; 24 hours): activated
effect on E2-induced NKG2E gene expression (U2OS-ERα cells [2]; in combination with 10 nM E2, 24 hours): antagonized

CC/C(=C(\c1ccccc1)c1ccc(OCCN(C)C)cc1)c1ccccc1 [tamoxifen]
KRT19 gene expression, compound alone (U2OS-ERα cells [1]): no effect
effect on E2-induced KRT19 expression (U2OS-ERα cells [1]): blocked
NKG2E gene expression, compound alone (U2OS-ERα cells [2]; 24 hours): activated
